Test [1] deals with T1, Type-1 angiotensin II receptor (Homo sapiens) (UniProt P30556).
T1 sequence (whole entry): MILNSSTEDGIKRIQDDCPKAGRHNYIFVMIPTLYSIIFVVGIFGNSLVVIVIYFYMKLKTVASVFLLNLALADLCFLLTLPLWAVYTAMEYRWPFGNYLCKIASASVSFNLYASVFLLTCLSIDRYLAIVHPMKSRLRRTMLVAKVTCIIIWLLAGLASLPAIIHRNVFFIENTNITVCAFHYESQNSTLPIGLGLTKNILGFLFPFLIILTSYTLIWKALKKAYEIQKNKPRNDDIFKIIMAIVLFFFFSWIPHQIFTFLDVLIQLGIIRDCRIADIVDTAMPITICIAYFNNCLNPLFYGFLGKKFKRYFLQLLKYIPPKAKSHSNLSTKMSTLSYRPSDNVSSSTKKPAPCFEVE
Briefly: The compound was evaluated for the inhibition of binding of [3H]-DUP 753 to AT1 receptor at 1 uM; not active (</= 10% Inhibition).

For test [2], the target named is T2, Type-2 angiotensin II receptor (Homo sapiens, UniProt P50052).
T2 sequence (P50052 whole entry): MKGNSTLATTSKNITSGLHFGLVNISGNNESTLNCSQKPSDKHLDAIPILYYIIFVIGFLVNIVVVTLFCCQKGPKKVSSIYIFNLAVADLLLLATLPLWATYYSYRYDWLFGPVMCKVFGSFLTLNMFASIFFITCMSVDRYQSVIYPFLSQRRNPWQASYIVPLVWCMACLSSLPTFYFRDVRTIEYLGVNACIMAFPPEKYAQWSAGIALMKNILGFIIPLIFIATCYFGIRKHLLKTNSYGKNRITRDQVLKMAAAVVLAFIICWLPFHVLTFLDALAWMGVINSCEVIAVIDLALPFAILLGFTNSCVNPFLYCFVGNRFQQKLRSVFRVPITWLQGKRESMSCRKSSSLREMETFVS
In words: The compound was evaluated for the inhibition of binding of [125I]-CGP 42112A to AT2 receptor.

In test [3] the target is T1, Type-1 angiotensin II receptor (Homo sapiens). In words: The compound was evaluated for the inhibition of binding of [3H]-DUP 753 to AT1 receptor at 0.1 uM; not active (</= 10% Inhibition).

Active and inactive are the calls of the source.

Usually IC50 stands for the point on the concentration scale where inhibition reaches its midpoint. Low readings indicate greater potency, high ones weaker potency. As for `Cc1cc(Cn2cnc3c2C[C@@H](C(=O)O)N(C(=O)C(c2ccccc2)c2ccccc2)C3)ccc1NCCCCCCNC(=O)CCNc1ccc([N+](=O)[O-])c2nonc12`, in test [1], the inhibition result was “inactive”. Moreover, the IC50 in test [2] was found to be 3.6 nM. Compound `Cc1cc(Cn2cnc3c2C[C@@H](C(=O)O)N(C(=O)C(c2ccccc2)c2ccccc2)C3)ccc1NCCCCCCNC(=O)[C@@H](N)CCCCNC(=O)CCCC[C@@H]1SC[C@@H]2NC(=O)N[C@@H]21` had an IC50 in test [2] of 7 nM. The inhibition entry in test [3] is “inactive”. As to `Cc1cc(Cn2cnc3c2C[C@@H](C(=O)O)N(C(=O)C(c2ccccc2)c2ccccc2)C3)ccc1N(C)C`, in test [3], the inhibition result was “inactive”. In test [2], `Cc1cc(Cn2cnc3c2C[C@@H](C(=O)O)N(C(=O)C(c2ccccc2)c2ccccc2)C3)cc(I)c1O` had an IC50 of 5.1 nM. Further, the inhibition result in test [3] was “inactive”.
